# Laboratory results as given in article PMC10693084, “Novel 8-Methoxycoumarin-3-Carboxamides with potent anticancer activity against liver cancer via targeting caspase-3/7 and β-tubulin polymerization” (BMC Chemistry, 2023).
# Key:
# [1] = test system: human liver carcinoma HepG2 cells; assay: MTT cytotoxicity assay against HepG2 cells; format: cell-based; details: for Structure–activity summary of cytotoxic activity (Fig. 4B) / IC50: HepG2 cells; for IC50: MTT, 24 h treatment
# Method: To assess the antitumor properties of these compounds, we utilized the 3-(4,5-dimethylthiazol-2-yl)-2,5-diphenyl tetrazolium bromide (MTT) colorimetric assay, a widely used method to evaluate cell viability and cytotoxicity.
# Following the incubation period, the cells were subjected to various concentrations of the prepared molecules and subsequently incubated for a duration of 24 h. […] Subsequently, a volume of 100 μL of dimethyl sulfoxide (DMSO) was introduced into each well in order to facilitate the dissolution of the purple formazan that had been generated. The quantification of the color intensity of the formazan product, which serves as an indicator of the cellular growth condition, is performed by employing an ELISA plate reader set at a wavelength of 570 nm. The experimental conditions were implemented with a minimum of three replicates, and the experiments were conducted on at least three separate occasions.
SMILES,melting point [°C],Structure–activity summary of cytotoxic activity (Fig. 4B) [1],IC50 [1] [µM],"IC50 ([1]; Homo sapiens, HepG2, 24 h) [µM]",HepG2-Cell Viability (%) ([1]; concentration LogC 0.19 (µM)),HepG2-Cell Viability (%) ([1]; concentration LogC 0.8 (µM)),HepG2-Cell Viability (%) ([1]; concentration LogC 1.4 (µM)),HepG2-Cell Viability (%) ([1]; concentration LogC 2 (µM)),HepG2-Cell Viability (%) ([1]; concentration LogC -0.41 (µM))
"COc1cccc2cc(C(N)=O)c(=O)oc12 [Compound 4, 8-Methoxycoumarin-3-carboxamide]",253,moderate activity,17.2 ± 1.05,17,65.8±1.73,57.78±2.46,47.29±3.09,37.94±2.75,75.81±1.48
"COc1cccc2cc(C(=O)NC(C)=O)c(=O)oc12 [Compound 6, N-acetyl 8-methoxycoumarin-3-carboxamide]",285,moderate activity,–,–,54.47±1.72,44.64±1.98,37.53±2.14,27.04±2.87,59.86±1.33
"COc1ccc(Br)c2cc(C(=O)NC(C)=O)c(=O)oc12 [Compound 7, N-acetyl 5-bromo-8-methoxycoumarin-3-carboxamide]",220,improved activity,2.57 ± 0.16,2.3,68.52±2.36,60.52±2.64,53.19±2.87,45.03±3.1,77.18±1.73

# The next lines start with results.
melting point [°C],SMILES,Structure–activity summary of cytotoxic activity (Fig. 4B) [1],IC50 [1] [µM],"IC50 ([1]; Homo sapiens, HepG2, 24 h) [µM]",HepG2-Cell Viability (%) ([1]; concentration LogC 0.19 (µM)),HepG2-Cell Viability (%) ([1]; concentration LogC 0.8 (µM)),HepG2-Cell Viability (%) ([1]; concentration LogC 1.4 (µM)),HepG2-Cell Viability (%) ([1]; concentration LogC 2 (µM)),HepG2-Cell Viability (%) ([1]; concentration LogC -0.41 (µM))
186,"COc1cccc2cc(C(=O)O)c(=O)oc12 [Compound 8, 8-methoxycoumarin-3-carboxylic acid]",moderate activity,5.18 ± 0.31,5,–,–,–,–,–
210,"COc1ccc(Br)c2cc(C(=O)O)c(=O)oc12 [Compound 9, 5-Bromo-8-methoxycoumarin-3-carboxylic acid]",attenuated activity,41.6 ± 2.52,41,66.86±1.86,55.34±2.24,50.19±3.07,42.17±2.94,73.23±1.47
